Counter-ions that a name gives are not always drawn.
Legend:
[1] = target: T1, human mGluR5 receptor (Homo sapiens, UniProt P41594); assay: Functional Assay 1: intracellular Ca2+ mobilization, positive allosteric modulation of glutamate EC20 response; assay type: cell-based; details: for Emax: maximum % effect relative to glutamate ECMax
T1 construct: expressed in transfected cells; host or cells: HEK-293
Protocol: HEK-293 cells were stable transfected with human mGluR5a cDNA in expression vector pcDNA4/TO. For Assay 1, these human mGluR5 receptor over-expressing HEK-293 cells were grown at a density of 40,000 cells/well in PDL-coated 384-well plates. The following day, cells were preloaded with the calcium-sensing dye Fluo-4 AM and various concentrations of test compound were added in the absence of exogenous glutamate to test for direct agonist activity. Shortly (2.5 min) thereafter, an EC20 equivalent of glutamate (˜0.2 μM) was added. The fluorescence signal was monitored using a Hamamatsu Functional Drug Screening System (FDSS) fluorescence plate reader following the addition of compound alone (direct agonist response) and then the further addition of an EC20 of glutamate (positive allosteric modulation response). The pEC50 was defined as the negative log of the test compound concentration which produced an increase in the glutamate EC20-mediated response that was 50% of maximum. Individual amplitudes were expressed as % effect by multiplying each amplitude by 100 and then dividing the product by the mean of the amplitudes derived from the glutamate ECMax-treated wells. Emax values reported in this application are defined as the maximum % effect obtained in a concentration-response curve.

[2] = target: T2, human mGluR5a receptor (Homo sapiens, UniProt P41594); assay: Functional Assay 2: Ca2+ mobilization, HEK cells with human mGluR5a receptor (H10H cell line); assay type: cell-based; details: for EC50 / Emax: H10H cell line; for EC50: glutamate EC20; for Emax: HEK293, maximum average response at a single concentration, relative to glutamate ECMax
T2 construct: host or cells: HEK293A (monoclones H10H and H12H)
Protocol: Human mGluR5a cDNA in pCMV6-XL6 mammalian expression plasmid was purchased from OriGene Technologies, Inc. (catalogue number SC326357) and subcloned into pcDNA3.1(−). […] Monoclones were named for the species (“H” for human) plus the location on the plate (e.g. “10H”).
The following day, the growth medium was removed and the cells were washed with assay buffer containing 1× Hank's balanced salt solution (Invitrogen, Carlsbad, Calif.), 20 mM HEPES, 2.5 mM probenecid, pH 7.4 and left with 20 μL of this reagent. Following this step, the cells were loaded with calcium indicator dye, fluo-4 AM, to a final concentration of 2 μM and incubated for 40-45 min at 37° C. The dye solution was removed and replaced with assay buffer. Cell plates were held for 10-15 min at room temperature and were then loaded into the Functional Drug Screening System 6000 (FDSS 6000, Hamamatsu, Japan).
After establishment of a fluorescence baseline for about 3 seconds, the compounds of the present invention were added to the cells, and the response in cells was measured. 2.3 minutes later an EC20 concentration of the mGluR5 receptor agonist glutamate was added to the cells, and the response of the cells was measured for about 1.7 minutes. All test compounds were dissolved and diluted to a concentration of 10 mM in 100% DMSO and then serially diluted into assay buffer for a 2× stock solution in 0.6% DMSO; stock compounds were then added to the assay for a final DMSO concentration of 0.3% after the first addition to the assay well. Calcium fluorescence measures were recorded as fold over basal fluorescence; raw data was then normalized to the maximal response to glutamate.
The concentration-response curves of compounds of the present invention, obtained in the presence of EC20 of mGluR5 receptor agonist glutamate to determine positive allosteric modulation, were generated using Microsoft Excel with IDBS XLfit add-ins. The raw data file containing all time points was used as the data source in the analysis template. This was saved by the FDSS as a tab-delimitted text file. Data were normalized using a static ratio function (F/F0) for each measurement of the total 350 values per well divided by each well's initial value. […] This is sufficient time to capture the peak amplitude of the cellular calcium response. […] Each of the three values collected at each concentration of test compound were weighted evenly. […] These two methods are in good agreement for curves with a clear plateau at the high concentration range.

[3] = human mGluR5 over-expressing HEK-293 cells, glutamate EC20 (~0.2 μM), updated value

T2 sequence (P41594 21-1180 isoform P41594-2 limits assumed): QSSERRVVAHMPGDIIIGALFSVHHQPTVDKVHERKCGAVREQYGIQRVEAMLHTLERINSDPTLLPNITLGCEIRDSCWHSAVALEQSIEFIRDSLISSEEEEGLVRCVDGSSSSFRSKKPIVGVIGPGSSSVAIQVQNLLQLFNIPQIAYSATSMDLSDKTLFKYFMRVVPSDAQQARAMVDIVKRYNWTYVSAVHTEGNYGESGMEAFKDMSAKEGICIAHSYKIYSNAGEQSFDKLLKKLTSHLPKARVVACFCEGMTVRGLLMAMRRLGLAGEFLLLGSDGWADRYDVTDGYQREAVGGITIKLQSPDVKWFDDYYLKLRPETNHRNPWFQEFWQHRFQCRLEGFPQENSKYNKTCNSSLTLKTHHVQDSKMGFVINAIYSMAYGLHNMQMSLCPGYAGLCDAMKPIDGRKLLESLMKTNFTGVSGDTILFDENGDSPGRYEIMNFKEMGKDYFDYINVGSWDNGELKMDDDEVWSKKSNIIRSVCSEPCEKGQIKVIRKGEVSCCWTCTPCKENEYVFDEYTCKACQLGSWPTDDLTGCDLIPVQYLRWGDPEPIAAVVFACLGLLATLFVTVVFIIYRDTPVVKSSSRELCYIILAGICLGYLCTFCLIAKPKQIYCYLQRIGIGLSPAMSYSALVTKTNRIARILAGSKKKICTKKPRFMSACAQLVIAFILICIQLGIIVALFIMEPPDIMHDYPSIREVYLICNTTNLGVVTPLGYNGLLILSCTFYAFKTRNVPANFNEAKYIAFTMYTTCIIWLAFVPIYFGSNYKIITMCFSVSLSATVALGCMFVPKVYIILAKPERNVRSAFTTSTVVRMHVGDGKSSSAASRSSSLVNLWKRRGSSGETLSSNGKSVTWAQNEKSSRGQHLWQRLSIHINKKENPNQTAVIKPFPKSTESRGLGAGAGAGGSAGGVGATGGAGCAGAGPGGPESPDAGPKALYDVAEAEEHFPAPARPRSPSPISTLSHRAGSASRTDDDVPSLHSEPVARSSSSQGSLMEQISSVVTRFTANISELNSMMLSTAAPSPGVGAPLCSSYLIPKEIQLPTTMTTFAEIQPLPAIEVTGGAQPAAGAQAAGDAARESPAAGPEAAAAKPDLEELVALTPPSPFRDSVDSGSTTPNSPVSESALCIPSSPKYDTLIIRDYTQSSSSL
T1 sequence (P41594 21-1180 isoform P41594-2 limits assumed): as above

Row | EC50 [2] [nM] | Emax [2] [%] | SMILES | other results
1 | 309 | 57 | O=C1c2sc(OCc3ccccc3)nc2CCN1c1ccc(F)cc1 [Compound 1, 5-(4-fluorophenyl)-6,7-dihydro-2-(phenylmethoxy)-thiazolo[5,4-c]pyridin-4(5H)-one] | EC50 [1, 3]: 1290 nM; Emax [1]: 64%; EC50 ([1]; original value, which was updated as compound was further tested): 851 nM
2 | > 10000 | 84 | O=C1NCCc2nc(COc3ccccc3)sc21 [Compound 2, 6,7-dihydro-2-(phenoxymethyl)-thiazolo[5,4-c]pyridin-4(5H)-one] | melting point: 170.5 °C
3 | 2290 | 78 | O=C1c2sc(COc3ccccc3)nc2CCN1CC1CCOCC1 [Compound 3, 6,7-dihydro-2-(phenoxymethyl)-5-[(tetrahydro-2H-pyran-4-yl)methyl]-thiazolo[5,4-c]pyridin-4(5H)-one] | –
4 | > 10000 | 69 | COCCN1CCc2nc(COc3ccccc3)sc2C1=O [Compound 4, 6,7-dihydro-5-(2-methoxyethyl)-2-(phenoxymethyl)-thiazolo[5,4-c]pyridin-4(5H)-one] | –
5 | 1200 | 84.5 | Cc1ccc(N2CCc3nc(COc4ccccc4)sc3C2=O)nc1 [Compound 5, 6,7-dihydro-5-(5-methyl-2-pyridinyl)-2-(phenoxymethyl)-thiazolo[5,4-c]pyridin-4(5H)-one] | –
6 | 457 | 75 | O=C1c2sc(COc3ccc(F)cc3)nc2CCN1c1ccc(F)cc1 [Compound 6, 2-[(4-fluorophenoxy)methyl]-5-(4-fluorophenyl)-6,7-dihydro-thiazolo[5,4-c]pyridin-4(5H)-one] | melting point: > 280 °C
7 | 214 | 81 | O=C1c2sc(COc3ccccc3)nc2CCCN1c1ccc(F)cc1 [Compound 11, 5-(4-fluorophenyl)-5,6,7,8-tetrahydro-2-(phenoxymethyl)-4H-thiazolo[5,4-c]azepin-4-one] | melting point: 120.4 °C
8 | 3470 | 45 | CN1CCc2nc(OCc3ccccc3)sc2C1=O [Compound 24, 6,7-dihydro-5-methyl-2-(phenylmethoxy)-thiazolo[5,4-c]pyridin-4(5H)-one] | –
9 | 2000 | 71 | COc1ccccc1N1CCc2nc(COc3ccccc3F)sc2C1=O [Compound 36, 2-[(2-fluorophenoxy)methyl]-6,7-dihydro-5-(2-methoxyphenyl)-thiazolo[5,4-c]pyridin-4(5H)-one] | –
10 | 832 | 85 | O=C1c2sc(COc3ccccc3)nc2CCN1c1ccccn1 [Compound 45, 6,7-dihydro-2-(phenoxymethyl)-5-(2-pyridinyl)-thiazolo[5,4-c]pyridin-4(5H)-one] | –
11 | 251 | 82 | O=C1c2sc(COc3ccccc3)nc2CCN1c1ccc(F)cn1 [Compound 47, 5-(5-fluoro-2-pyridinyl)-6,7-dihydro-2-(phenoxymethyl)-thiazolo[5,4-c]pyridin-4(5H)-one] | –
12 | 4680 | 78 | O=C1c2sc(COc3ccccc3)nc2CCN1c1cccnc1 [Compound 48, 6,7-dihydro-2-(phenoxymethyl)-5-(3-pyridinyl)-thiazolo[5,4-c]pyridin-4(5H)-one] | –
13 | 1380 | 69 | O=C1c2sc(COc3ccccc3)nc2CCN1c1ncccc1F [Compound 50, 5-(3-fluoro-2-pyridinyl)-6,7-dihydro-2-(phenoxymethyl)-thiazolo[5,4-c]pyridin-4(5H)-one] | –
14 | 3630 | 75 | Cc1ccnc(N2CCc3nc(COc4ccccc4)sc3C2=O)c1 [Compound 51, 6,7-dihydro-5-(4-methyl-2-pyridinyl)-2-(phenoxymethyl)-thiazolo[5,4-c]pyridin-4(5H)-one] | –
15 | 1350 | 82 | Cc1cccnc1N1CCc2nc(COc3ccccc3)sc2C1=O [Compound 52, 6,7-dihydro-5-(3-methyl-2-pyridinyl)-2-(phenoxymethyl)-thiazolo[5,4-c]pyridin-4(5H)-one] | –
16 | 562 | 71 | O=C1c2sc(COc3ccccc3)nc2CCN1c1ccncc1F [Compound 58, 5-(3-fluoro-4-pyridinyl)-6,7-dihydro-2-(phenoxymethyl)-thiazolo[5,4-c]pyridin-4(5H)-one] | –
17 | 2630 | 37.5 | CC(C)N1CCc2nc(COc3ccccc3)sc2C1=O [Compound 63, 6,7-dihydro-5-(1-methylethyl)-2-(phenoxymethyl)-thiazolo[5,4-c]pyridin-4(5H)-one] | –
18 | > 30200 | 18 | CC(C)N1CCc2nc(COc3cccc(F)c3)sc2C1=O [Compound 64, 2-[(3-fluorophenoxy)methyl]-6,7-dihydro-5-(1-methylethyl)-thiazolo[5,4-c]pyridin-4(5H)-one] | –

Further lines, the compound ahead of its results:

Row | SMILES | EC50 [2] [nM] | Emax [2] [%] | other results
19 | O=C1c2sc(OCc3ccccc3)nc2CCN1Cc1ccc(F)cc1F [Compound 13, 5-[(2,4-difluorophenyl)methyl]-6,7-dihydro-2-(phenylmethoxy)-thiazolo[5,4-c]pyridin-4(5H)-one] | 1860 | 48 | melting point: 108 to 111.2 °C
20 | O=C1c2sc(OCc3cccc(F)c3)nc2CCN1c1ccc(F)cc1 [Compound 19, 5-(4-fluorophenyl)-2-[(3-fluorophenyl)methoxy]-6,7-dihydro-thiazolo[5,4-c]pyridin-4(5H)-one] | 214 | 38 | melting point: 127.4 to 128.9 °C
21 | C[C@@H](N1CCc2nc(COc3ccc(F)cc3)sc2C1=O)C(C)(C)C [Compound 34, 2-[(4-fluorophenoxy)methyl]-6,7-dihydro-5-[(1R)-1,2,2-trimethylpropyl]-thiazolo[5,4-c]pyridin-4(5H)-one] | 1480 | 48 | –
22 | O=C1c2sc(COc3ccccc3)nc2CCN1c1ccncc1 [Compound 49, 6,7-dihydro-2-(phenoxymethyl)-5-(4-pyridinyl)-thiazolo[5,4-c]pyridin-4(5H)-one] | – | – | pEC50 [2]: 5.57
23 | O=C1NCCc2nc(OCc3ccccc3)sc21 [Compound 65, 6,7-dihydro-2-(phenylmethoxy)-thiazolo[5,4-c]pyridin-4(5H)-one] | – | – | EC50 [1, 3]: > 30200 nM; Emax [1]: 25%
24 | N#Cc1cc(COc2nc3c(s2)C(=O)NCC3)ccc1F [Compound 66, 2-fluoro-5-[[(4,5,6,7-tetrahydro-4-oxothiazolo[5,4-c]pyridin-2-yl)oxy]methyl]-benzonitrile] | – | – | EC50 [1, 3]: > 30200 nM; Emax [1]: 24%
25 | Cc1ccccc1COc1nc2c(s1)C(=O)NCC2 [Compound 67, 6,7-dihydro-2-[(2-methylphenyl)methoxy]-thiazolo[5,4-c]pyridin-4(5H)-one] | > 30200 | 18 | –
26 | Cc1cccc(COc2nc3c(s2)C(=O)NCC3)c1 [Compound 68, 6,7-dihydro-2-[(3-methylphenyl)methoxy]-thiazolo[5,4-c]pyridin-4(5H)-one] | > 30200 | 20 | –
27 | O=C1NCCc2nc(OCc3ccccc3F)sc21 [Compound 69, 2-[(2-fluorophenyl)methoxy]-6,7-dihydro-thiazolo[5,4-c]pyridin-4(5H)-one trifluoroacetate] | – | – | EC50 [1, 3]: > 30200 nM; Emax [1]: 15%
28 | O=C1NCCc2nc(OCc3cccc(F)c3)sc21 [Compound 70, 2-[(3-fluorophenyl)methoxy]-6,7-dihydro-thiazolo[5,4-c]pyridin-4(5H)-one trifluoroacetate] | – | – | EC50 [1, 3]: > 30200 nM; Emax [1]: 15%
29 | O=C1NCCc2nc(OCc3ccc(F)cc3)sc21 [Compound 71, 2-[(4-fluorophenyl)methoxy]-6,7-dihydro-thiazolo[5,4-c]pyridin-4(5H)-one trifluoroacetate] | – | – | EC50 [1, 3]: > 30200 nM; Emax [1]: 8%
30 | Cc1ccc(COc2nc3c(s2)C(=O)NCC3)cc1 [Compound 72, 6,7-dihydro-2-[(4-methylphenyl)methoxy]-thiazolo[5,4-c]pyridin-4(5H)-one] | – | – | EC50 [1, 3]: > 30200 nM; Emax [1]: 10%
31 | COc1cccc(COc2nc3c(s2)C(=O)N(c2ccc(F)cc2F)CC3)c1 [Compound 80, 5-(2,4-difluorophenyl)-6,7-dihydro-2-[(3-methoxyphenyl)methoxy]-thiazolo[5,4-c]pyridin-4(5H)-one] | – | – | EC50 [1, 3]: > 30200 nM; Emax [1]: 26%

Source: patent US9040707B2, “Bicyclic thiazoles as allosteric modulators of mGluR5 receptors” (Janssen Pharmaceutica NV, priority 2009, dated 2015)
